The record followed here is publication PMC5218480 (PLoS ONE, 2017).

The experiment deals with MV-4-11 cells. Kind of experiment: Gene expression microarray analysis (Affymetrix PrimeView) and GSEA. It counts as cell-based, human. On the set-up: RFU PODN (11730768_x_at) / Fold change /veh PODN (11730768_x_at) / RFU LINC00158 (11744669_a_at) / Fold change /veh LINC00158 (11744669_a_at) / RFU DUSP10 (11751237_a_at) / Fold change /veh DUSP10 (11751237_a_at) / RFU ID3 (11757404_x_at) / Fold change /veh ID3 (11757404_x_at) / RFU PLEKHG5 (11737974_s_at) / Fold change /veh PLEKHG5 (11737974_s_at) / RFU LRRC4B (11730491_at) / Fold change /veh LRRC4B (11730491_at) / RFU GIMAP4 (11747438_a_at) / Fold change /veh GIMAP4 (11747438_a_at) / RFU KRT8 (11758183_x_at) / Fold change /veh KRT8 (11758183_x_at) / RFU CNN1 (11734310_a_at) / Fold change /veh CNN1 (11734310_a_at) / RFU VPS37D (11726825_at) / Fold change /veh VPS37D (11726825_at) / RFU C10orf10 (11716522_x_at) / Fold change /veh C10orf10 (11716522_x_at) / RFU KIR2DL2 /// KIR2DL4 /// KIR2DL5A /// KIR2DL5B /// KIR2DS1 /// KIR2DS2 /// KIR2DS3 /// KIR2DS4 /// KIR3DL3 /// KIR3DL3 /// KIR3DS1 (11738374_at) / Fold change /veh KIR2DL2 /// KIR2DL4 /// KIR2DL5A /// KIR2DL5B /// KIR2DS1 /// KIR2DS2 /// KIR2DS3 /// KIR2DS4 /// KIR3DL3 /// KIR3DL3 /// KIR3DS1 (11738374_at) / RFU C1QL1 (11718748_at) / Fold change /veh C1QL1 (11718748_at) / RFU TMPRSS4 (11747572_a_at) / Fold change /veh TMPRSS4 (11747572_a_at) / RFU HAMP (11756126_x_at) / Fold change /veh HAMP (11756126_x_at) / RFU RNFT2 (11725882_a_at) / Fold change /veh RNFT2 (11725882_a_at) / RFU NR4A2 (11747474_a_at) / Fold change /veh NR4A2 (11747474_a_at) / RFU ABCC12 (11746883_a_at) / Fold change /veh ABCC12 (11746883_a_at) / RFU TMEM136 (11760407_x_at) / Fold change /veh TMEM136 (11760407_x_at) / RFU CLDN22 /// WWC2 (11732394_at) / Fold change /veh CLDN22 /// WWC2 (11732394_at) / RFU HLA-DPB1 (11760878_x_at) / Fold change /veh HLA-DPB1 (11760878_x_at) / RFU SPINT1 (11716480_a_at) / Fold change /veh SPINT1 (11716480_a_at) / RFU GAP43 (11754022_s_at) / Fold change /veh GAP43 (11754022_s_at) / RFU A4GNT (11735810_at) / Fold change /veh A4GNT (11735810_at) / RFU PRB3 (11715151_x_at) / Fold change /veh PRB3 (11715151_x_at) / RFU TUBB4B (11761932_at) / Fold change /veh TUBB4B (11761932_at) / RFU CAPN14 (11732068_a_at) / Fold change /veh CAPN14 (11732068_a_at) / RFU TMCC2 (11721928_a_at) / Fold change /veh TMCC2 (11721928_a_at) / RFU IRGQ (11745062_a_at) / Fold change /veh IRGQ (11745062_a_at) / RFU FAM174B (11720279_a_at) / Fold change /veh FAM174B (11720279_a_at) / RFU TMPRSS4 (11748680_a_at) / Fold change /veh TMPRSS4 (11748680_a_at) / RFU FAM212B (11763350_a_at) / Fold change /veh FAM212B (11763350_a_at) / RFU PLEKHG5 (11743358_a_at) / Fold change /veh PLEKHG5 (11743358_a_at) / RFU ZSCAN30 (11745921_a_at) / Fold change /veh ZSCAN30 (11745921_a_at) / RFU CMKLR1 (11741424_a_at) / Fold change /veh CMKLR1 (11741424_a_at) / RFU LOC101060620 /// MAPK8IP1 (11723275_at) / Fold change /veh LOC101060620 /// MAPK8IP1 (11723275_at) / RFU SPTSSB (11747773_x_at) / Fold change /veh SPTSSB (11747773_x_at) / RFU PRSS12 (11739890_at) / Fold change /veh PRSS12 (11739890_at) / RFU BIN1 (11741810_x_at) / Fold change /veh BIN1 (11741810_x_at) / RFU WNT11 (11732464_a_at) / Fold change /veh WNT11 (11732464_a_at) / RFU C10orf10 (11716521_a_at) / Fold change /veh C10orf10 (11716521_a_at) / RFU C5orf56 (11738089_at) / Fold change /veh C5orf56 (11738089_at) / RFU CYB561 (11721691_x_at) / Fold change /veh CYB561 (11721691_x_at) / RFU ANKRD19P (11752326_a_at) / Fold change /veh ANKRD19P (11752326_a_at) / RFU OR2T12 /// OR2T33 /// OR2T8 (11738714_s_at) / Fold change /veh OR2T12 /// OR2T33 /// OR2T8 (11738714_s_at) / RFU VCAN (11748164_a_at) / Fold change /veh VCAN (11748164_a_at) / RFU JSRP1 (11732532_at) / Fold change /veh JSRP1 (11732532_at) / RFU KRTAP10-11 (11738290_x_at) / Fold change /veh KRTAP10-11 (11738290_x_at) / RFU MYO3A (11730013_a_at) / Fold change /veh MYO3A (11730013_a_at) / RFU EBF3 (11725865_a_at) / Fold change /veh EBF3 (11725865_a_at) / RFU CAMK2N1 (11719241_x_at) / Fold change /veh CAMK2N1 (11719241_x_at) / RFU C5orf56 (11738088_a_at) / Fold change /veh C5orf56 (11738088_a_at) / RFU OLFML3 (11715873_a_at) / Fold change /veh OLFML3 (11715873_a_at) / RFU LOC100653217 /// NTM (11731650_a_at) / Fold change /veh LOC100653217 /// NTM (11731650_a_at) / RFU MAPK11 (11762145_a_at) / Fold change /veh MAPK11 (11762145_a_at) / RFU FIZ1 (11724087_x_at) / Fold change /veh FIZ1 (11724087_x_at) / RFU OASL (11726364_x_at) / Fold change /veh OASL (11726364_x_at) / RFU SOX15 (11748057_x_at) / Fold change /veh SOX15 (11748057_x_at) / RFU CD79A (11719716_a_at) / Fold change /veh CD79A (11719716_a_at) / RFU HIST1H1D (11736915_at) / Fold change /veh HIST1H1D (11736915_at) / RFU CASKIN2 (11723855_a_at) / Fold change /veh CASKIN2 (11723855_a_at) / RFU LOC730098 (11760151_x_at) / Fold change /veh LOC730098 (11760151_x_at) / RFU OR4N2 (11742367_at) / Fold change /veh OR4N2 (11742367_at) / RFU PRRT2 (11749266_a_at) / Fold change /veh PRRT2 (11749266_a_at) / RFU SNX32 (11753110_a_at) / Fold change /veh SNX32 (11753110_a_at) / RFU CDHR5 (11726645_a_at) / Fold change /veh CDHR5 (11726645_a_at) / RFU RCAN1 (11760418_a_at) / Fold change /veh RCAN1 (11760418_a_at) / RFU FAM167A (11723789_a_at) / Fold change /veh FAM167A (11723789_a_at) / RFU FAM26E (11764081_at) / Fold change /veh FAM26E (11764081_at) / RFU ISYNA1 (11749810_s_at) / Fold change /veh ISYNA1 (11749810_s_at) / RFU ACY1 (11761880_at) / Fold change /veh ACY1 (11761880_at) / RFU 11764098_at / Fold change /veh 11764098_at / RFU SAMD14 (11745864_x_at) / Fold change /veh SAMD14 (11745864_x_at) / RFU NPB (11741838_a_at) / Fold change /veh NPB (11741838_a_at) / RFU TMPRSS6 (11731388_a_at) / Fold change /veh TMPRSS6 (11731388_a_at) / RFU KRTAP10-2 (11738614_at) / Fold change /veh KRTAP10-2 (11738614_at) / RFU ARHGAP8 /// PRR5-ARHGAP8 (11727945_x_at) / Fold change /veh ARHGAP8 /// PRR5-ARHGAP8 (11727945_x_at) / RFU KRTAP5-7 /// NADSYN1 (11734609_at) / Fold change /veh KRTAP5-7 /// NADSYN1 (11734609_at) / RFU RASL12 (11751679_a_at) / Fold change /veh RASL12 (11751679_a_at) / RFU CDKN2B (11736163_a_at) / Fold change /veh CDKN2B (11736163_a_at) / RFU PRF1 (11729649_at) / Fold change /veh PRF1 (11729649_at) / RFU, ZNF638 /// ZNF638-IT1 / Fold change vs veh, ZNF638 /// ZNF638-IT1 / RFU, PANK3 / Fold change vs veh, PANK3 / RFU, SH3YL1 / Fold change vs veh, SH3YL1 / RFU, ZEB2 / Fold change vs veh, ZEB2 / RFU, NRIP1 / Fold change vs veh, NRIP1 / RFU, PTTG1IP / Fold change vs veh, PTTG1IP / RFU, CAPN2 / Fold change vs veh, CAPN2 / RFU, MED14 / Fold change vs veh, MED14 / RFU, SNORA58 / Fold change vs veh, SNORA58 / RFU, C1orf63 / Fold change vs veh, C1orf63 / RFU, LRRFIP1 / Fold change vs veh, LRRFIP1 / RFU, NDUFAF7 / Fold change vs veh, NDUFAF7 / RFU, SLC12A2 / Fold change vs veh, SLC12A2 / RFU, IBTK / Fold change vs veh, IBTK / RFU, ESF1 / Fold change vs veh, ESF1 / Fold change vs veh, TMEM50B / RFU, TAOK1 / Fold change vs veh, TAOK1 / RFU, ACBD3 / Fold change vs veh, ACBD3 / RFU, TMA16 / Fold change vs veh, TMA16 / RFU, RWDD3 / Fold change vs veh, RWDD3 / RFU, BCAT1 / Fold change vs veh, BCAT1 / RFU, EDEM3 / Fold change vs veh, EDEM3 / RFU, TMEM33 / Fold change vs veh, TMEM33 / RFU, WDR75 / Fold change vs veh, WDR75 / RFU, AHCTF1 / Fold change vs veh, AHCTF1 / RFU, TFRC / Fold change vs veh, TFRC / RFU, ZDHHC17 / Fold change vs veh, ZDHHC17 / RFU, NOM1 / Fold change vs veh, NOM1 / RFU, ARL8B / Fold change vs veh, ARL8B / RFU, ZBTB11 / Fold change vs veh, ZBTB11 / RFU, TAMM41 / Fold change vs veh, TAMM41 / RFU, KIAA1704 /// LOC100996395 / Fold change vs veh, KIAA1704 /// LOC100996395 / RFU, ING1 / Fold change vs veh, ING1 / RFU, TRMT61B / Fold change vs veh, TRMT61B / RFU, FUBP3 / Fold change vs veh, FUBP3 / RFU, TP53 / Fold change vs veh, TP53 / RFU, TNKS2 / Fold change vs veh, TNKS2 / RFU, ZFP14 / Fold change vs veh, ZFP14 / RFU, ACTR2 / Fold change vs veh, ACTR2 / RFU, PPP3R1 / Fold change vs veh, PPP3R1 / RFU, PIK3R1 / Fold change vs veh, PIK3R1 / RFU, HNRNPA1 / Fold change vs veh, HNRNPA1 / RFU, RNF170 / Fold change vs veh, RNF170 / RFU, ZNF28 / Fold change vs veh, ZNF28 / RFU, RNGTT / Fold change vs veh, RNGTT / RFU, OGT / Fold change vs veh, OGT / RFU, BRD1 / Fold change vs veh, BRD1 / RFU, MARS / Fold change vs veh, MARS / RFU, ZNF655 / Fold change vs veh, ZNF655 / RFU, FAHD1 / Fold change vs veh, FAHD1 / RFU, BDP1 / Fold change vs veh, BDP1 / RFU, LRRCC1 / Fold change vs veh, LRRCC1 / RFU, ARID1A / Fold change vs veh, ARID1A / RFU, ZNF146 / Fold change vs veh, ZNF146 / RFU, ZNF330 / Fold change vs veh, ZNF330 / RFU, GPN3 / Fold change vs veh, GPN3 / RFU, C9orf123 / Fold change vs veh, C9orf123 / RFU, N4BP2L2 / Fold change vs veh, N4BP2L2 / RFU, ARFIP1 / Fold change vs veh, ARFIP1 / RFU, FAM179B / Fold change vs veh, FAM179B / RFU, BCL10 / Fold change vs veh, BCL10 / RFU, UHRF1BP1L / Fold change vs veh, UHRF1BP1L / RFU, BET1 / Fold change vs veh, BET1 / RFU, CNOT2 / Fold change vs veh, CNOT2 / RFU, ZNF268 / Fold change vs veh, ZNF268 / Fold change vs veh, ZNF507 / RFU, DGCR2 / Fold change vs veh, DGCR2 / RFU, WDSUB1 / Fold change vs veh, WDSUB1 / Fold change vs veh, HSP90B1 /// MIR3652 / RFU, ADSS / Fold change vs veh, ADSS / RFU, GK / Fold change vs veh, GK / RFU, ZNF148 / Fold change vs veh, ZNF148 / RFU, TAF9 / Fold change vs veh, TAF9 / RFU, SLC1A5 / Fold change vs veh, SLC1A5 / RFU, SLMO2 / Fold change vs veh, SLMO2 / RFU, ABCC4 / Fold change vs veh, ABCC4 / RFU, LOC101060439 /// RAP1B / Fold change vs veh, LOC101060439 /// RAP1B / RFU, RFX7 / Fold change vs veh, RFX7 / RFU, GTPBP10 / Fold change vs veh, GTPBP10 / RFU, CNEP1R1 / Fold change vs veh, CNEP1R1 / RFU, BIVM-ERCC5 /// ERCC5 / Fold change vs veh, BIVM-ERCC5 /// ERCC5 / RFU, ILF3 / Fold change vs veh, ILF3 / RFU 11762660_at / Fold change /veh 11762660_at / RFU VCAN (11757783_s_at) / Fold change /veh VCAN (11757783_s_at) / RFU DDX43 (11728927_at) / Fold change /veh DDX43 (11728927_at) / RFU KRT8 (11758188_x_at) / Fold change /veh KRT8 (11758188_x_at) / RFU NKD1 (11759106_at) / Fold change /veh NKD1 (11759106_at) / RFU SRD5A1 (11742802_a_at) / Fold change /veh SRD5A1 (11742802_a_at) / RFU TPSAB1 /// TPSB2 (11721975_s_at) / Fold change /veh TPSAB1 /// TPSB2 (11721975_s_at) / RFU GSTM3 (11746129_a_at) / Fold change /veh GSTM3 (11746129_a_at) / RFU IL23R (11737362_x_at) / Fold change /veh IL23R (11737362_x_at) / RFU TMEM51 (11727254_a_at) / Fold change /veh TMEM51 (11727254_a_at) / RFU PIWIL2 (11732686_x_at) / Fold change /veh PIWIL2 (11732686_x_at) / RFU ORM1 (11744905_x_at) / Fold change /veh ORM1 (11744905_x_at) / RFU CCDC152 (11743942_at) / Fold change /veh CCDC152 (11743942_at) / RFU ECM1 (11717891_a_at) / Fold change /veh ECM1 (11717891_a_at) / RFU IL23R (11748794_a_at) / Fold change /veh IL23R (11748794_a_at) / RFU TNFAIP8L3 (11732012_x_at) / Fold change /veh TNFAIP8L3 (11732012_x_at) / RFU MBOAT4 (11741988_at) / Fold change /veh MBOAT4 (11741988_at) / RFU 11764193_at / Fold change /veh 11764193_at / RFU TMEM53 (11763286_at) / Fold change /veh TMEM53 (11763286_at) / RFU MAGEB2 (11727129_at) / Fold change /veh MAGEB2 (11727129_at) / RFU TMEM200A (11744735_a_at) / Fold change /veh TMEM200A (11744735_a_at) / RFU CCDC152 (11751479_a_at) / Fold change /veh CCDC152 (11751479_a_at) / RFU FAM211A (11726209_a_at) / Fold change /veh FAM211A (11726209_a_at) / RFU RGS16 (11746705_a_at) / Fold change /veh RGS16 (11746705_a_at) / RFU VCAN (11755009_s_at) / Fold change /veh VCAN (11755009_s_at) / RFU RHOB (11743442_s_at) / Fold change /veh RHOB (11743442_s_at) / RFU RGS16 (11720943_a_at) / Fold change /veh RGS16 (11720943_a_at) / RFU RGS16 (11720944_at) / Fold change /veh RGS16 (11720944_at) / RFU, VPS4B / Fold change vs veh, VPS4B / RFU, CREB1 / Fold change vs veh, CREB1 / RFU, DNAJC13 / Fold change vs veh, DNAJC13 / RFU, GNAQ / Fold change vs veh, GNAQ / RFU, CDK5R1 / Fold change vs veh, CDK5R1 / RFU, ZRANB3 / Fold change vs veh, ZRANB3 / RFU, CUL4A / Fold change vs veh, CUL4A / RFU, CCNY / Fold change vs veh, CCNY / RFU, UFL1 / Fold change vs veh, UFL1 / RFU, COG3 / Fold change vs veh, COG3 / RFU, DIAPH2 / Fold change vs veh, DIAPH2 / RFU, SKA2 / Fold change vs veh, SKA2 / RFU, AFF3 / Fold change vs veh, AFF3 / RFU, LMF1 / Fold change vs veh, LMF1 / RFU, IPO11 / Fold change vs veh, IPO11 / RFU, DFFB / Fold change vs veh, DFFB / RFU, FOXP1 / Fold change vs veh, FOXP1 / RFU, CARD8 / Fold change vs veh, CARD8 / RFU, STRN3 / Fold change vs veh, STRN3 / RFU, ADK / Fold change vs veh, ADK / RFU, RASSF2 / Fold change vs veh, RASSF2 / RFU, WIPF1 / Fold change vs veh, WIPF1 / RFU, LARP1B / Fold change vs veh, LARP1B / RFU, RASA1 / Fold change vs veh, RASA1 / RFU, RB1 / Fold change vs veh, RB1 / RFU, PPFIA1 / Fold change vs veh, PPFIA1 / RFU, MAT2A / Fold change vs veh, MAT2A / RFU, CCT5 / Fold change vs veh, CCT5 / RFU, WDR92 / Fold change vs veh, WDR92 / RFU, CUX1 / Fold change vs veh, CUX1 / RFU, TTC7A / Fold change vs veh, TTC7A / RFU, TMEM135 / Fold change vs veh, TMEM135 / RFU, DEPTOR / Fold change vs veh, DEPTOR / RFU, CPM / Fold change vs veh, CPM / RFU, DNAJB6 / Fold change vs veh, DNAJB6 / RFU, CACNA2D3 / Fold change vs veh, CACNA2D3 / RFU, DTX4 / Fold change vs veh, DTX4 / RFU, TFCP2 / Fold change vs veh, TFCP2 / RFU, GMCL1 /// GMCL1P1 / Fold change vs veh, GMCL1 /// GMCL1P1 / RFU, AEBP2 / Fold change vs veh, AEBP2 / RFU, SNHG1 /// SNORD22 /// SNORD25 /// SNORD26 /// SNORD27 /// SNORD28 /// SNORD29 /// SNORD31 / Fold change vs veh, SNHG1 /// SNORD22 /// SNORD25 /// SNORD26 /// SNORD27 /// SNORD28 /// SNORD29 /// SNORD31 / Fold change (Aza/veh), C12orf56 (ProbeSet 11735607_a_at) / Fold change (ACY-1035/veh), C12orf56 (ProbeSet 11735607_a_at) / Fold change (Aza/veh), FGFR1OP (ProbeSet 11751329_s_at) / Fold change (ACY-1035/veh), FGFR1OP (ProbeSet 11751329_s_at) / Fold change (Aza/veh), VPS36 (ProbeSet 11739960_a_at) / Fold change (ACY-1035/veh), VPS36 (ProbeSet 11739960_a_at) / RFU SYPL1 (11715823_x_at) / Fold change /veh SYPL1 (11715823_x_at) / RFU IGFBP7 (11715501_s_at) / Fold change /veh IGFBP7 (11715501_s_at) / RFU REEP3 (11722064_at) / Fold change /veh REEP3 (11722064_at) / RFU IGLL1 (11728026_x_at) / Fold change /veh IGLL1 (11728026_x_at): dose or concentration left out as unconfirmed. The note with it: MV-4-11 cells, 48 hours.

SMILES strings stand for the structures.

Take `Nc1ncn([C@@H]2O[C@H](CO)[C@@H](O)[C@H]2O)c(=O)n1` [azacitidine]: the “RFU SAMD14 (11745864_x_at)” value is 17.52 RFU.
